Experimental data published in US11286263B2, “Macrocyclic fluorine substituted indole derivatives” (The Broad Institute, Inc., priority 2017, dated 2022).
Where “and” joins values, the source holds several entries; their conditions need not be identical. Identical values can stand only once. Counter-ions that a name gives are not always drawn. Like-named read-outs stand apart in the source and are kept apart here.

Columns and labels:
SUDHL10 [1] = experiment: Induction of caspase-3/7 activity, SUDHL10 (Assay 4); assay type: cell-based; conditions: SUDHL10 cells
Method: (§1) Induction of Caspase-3/7 Activity upon Treatment of Cells with Selected Compounds
(§2) The BH3-domain of MCL-1 sequesters pro-apoptotic proteins, thereby inhibiting apoptosis. In contrast, MCL-1 inhibitors are expected to antagonize this effect leading to an increase in apoptosis, which can be determined by measuring the activity of caspase-3/7.
(§3) The activity of caspase-3/7 was determined in DLBCL (Diffuse large B-cell lymphoma) cell lines (SUDHL5 and SUDHL10) upon treatment with different compounds, using the Caspase-Glo® 3/7 reagent from Promega (G8092).
(§4) Rim wells were excluded. The cells were incubated for 3 h hours in a humidified incubator at 37° C.
(§5) For the evaluation of the results, the background measured with “medium-only” was subtracted from all other values. […] The Bella DRC Master Sheet was used to calculate EC50s, with fixed C0=1 and Cl=plateau/max induction for the reference compound.

SUDHL5 [2] = experiment: Antiproliferation assay SUDHL5 (Assay 7); assay type: cell-based; conditions: SUDHL5 cells, CellTiter-Glo, median, read-out: IC50 Antiproli SUDHL5 [M] (median)
Method: (§6) Assessment of the Anti-Proliferative Effect of Compounds in Different Cell Lines
(§7) The impact of compounds on the proliferation of different cell lines was assessed using the CellTiter-Glo® Luminescent Cell Viability reagent from Promega (G7573).
(§8) In parallel, cells were plated in a reference (day 0) plate for time zero determination.
(§9) Rim wells were excluded. The cells were incubated for 72 h hours in a humidified incubator at 37° C. The day 0 plate was measured by adding 30 μL/well of CTG solution (CellTiter-Glo® Luminescent Cell Viability reagent, Promega G7573) to time zero wells in the reference plate followed by a 10 minutes incubation and luminescence reading at 0.1 ms. using the PHERAstar FS microplate reader (BMG Labtech).
(§10) After 72 h incubation, the treated plates were measured in the same way as the day 0 plate mentioned above.

MCL-1 = MCL-1 (Homo sapiens (Human), UniProt Q07820, K194A/K197A/R201A); experiment: Protein-protein interaction assay MCL-1/Noxa BH3 peptide (MCL-1 assay), TR-FRET; assay type: binding; conditions: MCL-1/Noxa BH3 peptide TR-FRET; median
MCL-1, sequence (Q07820 whole entry K194A/K197A/R201A, looked up): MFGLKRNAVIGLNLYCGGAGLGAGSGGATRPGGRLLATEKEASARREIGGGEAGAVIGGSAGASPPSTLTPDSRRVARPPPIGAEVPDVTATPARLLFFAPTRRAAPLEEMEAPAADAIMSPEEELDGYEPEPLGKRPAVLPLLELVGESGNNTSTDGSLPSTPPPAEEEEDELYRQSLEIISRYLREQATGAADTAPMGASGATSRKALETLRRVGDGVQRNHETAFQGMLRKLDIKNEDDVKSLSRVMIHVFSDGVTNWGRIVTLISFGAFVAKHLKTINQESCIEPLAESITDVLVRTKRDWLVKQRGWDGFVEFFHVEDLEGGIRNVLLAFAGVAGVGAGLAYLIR
Method: Protein-Protein Interaction Assay: MCL-1/Noxa BH3 Peptide (MCL-1 Assay)
The dose-dependent inhibition by the compounds described in this invention of the interaction between MCL-1 and the BH3 domain of Noxa (both human) was determined using a steady state binding competition assay with time-resolved fluorescence energy transfer (TR-FRET) readout. For that purpose MCL-1 (amino acids 173-321, N-terminal fused to Maltose Binding Protein (MBP) SEQ ID 1)) and a synthetic Noxa BH3-derived peptide of sequence Biotin-PEG2-PEG2-PAELEVE-Nva-ATQLRRFGDKLNFRQKLL-amide (SEQ ID 2) served as protein receptor and tracer ligand respectively. The MBP-MCL-1 was purchased from Beryllium (Bedford, Mass., USA). The expression and purification of this protein construct has been described elsewhere (DOI:10.1371/journal.pone.0125010). The Noxa BH3-derived peptide can be obtained from e.g. Biosyntan (Berlin, Germany).
In the assay 11 different concentrations of each compound (0.1 nM, 0.33 nM, 1.1 nM, 3.8 nM, 13 nM, 44 nM, 0.15 μM, 0.51 μM, 1.7 μM, 5.9 μM and 20 μM) were typically measured as duplicates in the same microtiter plate. For that, 100-fold concentrated DMSO solutions were prepared by serial dilutions (1:3.4) of a 2 mM stock solution in a clear, 384-well microtiter plate (Greiner Bio-One, Frickenhausen, Germany). From there, 50 nl were transferred in a dark test plate (Greiner Bio-One, Frickenhausen, Germany). The assay was initiated by addition of 2 μl of a 2,5-fold concentrated MBP-MCL-1 solution (usually for a 1 nM end concentration in 5 μl reaction volume) in aqueous assay buffer [50 mM Tris/HCl pH 7, 100 mM sodium chloride (NaCl), 50 mM potassium fluoride (KF), 0.005% Tween-20, 2 mM DTT, 0.1% bovine gamma globulin (BGG)] to the compounds in the assay plate. This was followed by a 10-minute incubation step at 22° C. for pre-equilibration of the putative complex between MBP-MCL-1 and the compounds. After that, 3 μl of a 1.67-fold concentrated solution (in assay buffer) consisting of Noxa BH3-derived peptide (1 nM end concentration) and TR-FRET detection reagents [1.67 nM anti-MBP-Eu cryptate and 1.67 nM streptavidin-XL665 (both from Cisbio Bioassays, Codolet, France)], were added.
The mixture was incubated in the dark for one hour at 22° C. and then overnight at 4° C. The formation of MCL-1/Noxa complexes was determined by measuring the resonance energy transfer of the anti-MBP-Eu-cryptate antibody to the streptavidin-XL665 present in the reaction. For that purpose, the fluorescence emission at 620 nm and 665 nm after excitation at 330-350 nm was measured in a TR-FRET measuring instrument, for instance a Rubystar or a Pherastar (both from BMG Lab Technologies, Offenburg, Germany) or a Viewlux (Perkin-Elmer). The ratio of the emission at 665 nm and at 622 nm was used as indicator of the amount of MCL-1/NOXA complexes present.
The resulting data (ratio) were normalized, taking 0% inhibition as the mean value of control measurements (usually 32 data points) where all reagents were included. In this case 50 nl DMSO were used instead of compounds. A 100% inhibition corresponded to the mean value of control measurements (usually 32 data points) where all reagents except MCL-1 were included. IC50 values were determined by regression analysis based on a 4 parameter equation (minimum, maximum, IC50, Hill; Y=Max+(Min−Max)/(1+(X/IC50)^Hill) using the Screener Software (Genedata).

A2780 = experiment: Antiproliferation assay A2780 (Assay 7); assay type: cell-based; conditions: A2780 cells, CellTiter-Glo, single determinations, read-out: IC50 Antiproli A2780
Method: as §6, §7, §8, §9, §10

SUDHL5 [3] = experiment: Induction of cytotoxicity, SUDHL5 (Assay 6); conditions: read-out: IC50 Cytotox SUDHL5 [M] (median), SUDHL5 cells, 5 h, CellTiter-Glo
SUDHL10 [4] = experiment: Induction of cytotoxicity, SUDHL10 (Assay 6); conditions: read-out: IC50 Cytotox SUDHL10 [M] (median), SUDHL10 cells, 5 h, CellTiter-Glo
AMO-1 = experiment: Antiproliferation assay AMO-1 (Assay 7); assay type: cell-based; conditions: AMO-1 cells, CellTiter-Glo, single determinations, read-out: IC50 Antiproli AMO-1
Method: as §6, §7, §8, §9, §10

SUDHL5 [5] = experiment: Induction of caspase-3/7 activity, SUDHL5 (Assay 4); assay type: cell-based; conditions: SUDHL5 cells
Method: as §1, §2, §3, §4, §5

MV-4-11 = experiment: Antiproliferation assay MV-4-11 (Assay 7); assay type: cell-based; conditions: MV-4-11 cells, CellTiter-Glo, single determinations, read-out: IC50 Antiproli MV-4-11
Method: as §6, §7, §8, §9, §10

[6] = Homo sapiens, SU-DHL10, 3 h, Caspase-Glo 3/7, median
[7] = Homo sapiens, SU-DHL-5, 3 h, Caspase-Glo 3/7, median

| Structure (SMILES) | EC50 (SUDHL10 [1]; [6]) [µM] | IC50 (SUDHL5 [2]; Homo sapiens, SU-DHL-5, 72 h) [M] | IC50 (MCL-1) [µM] | IC50 (A2780; Homo sapiens, A2780, 72 h) [µM] | EC50 (SUDHL5 [5]; [7]) [µM] | IC50 (MV-4-11; 72 h, listed as 08) [µM] | EC50 (SUDHL10 [1]; 3 h, Caspase-Glo 3/7, median) [µM] | IC50 (SUDHL5 [2]; 72 h) [M] | IC50 (A2780; 72 h, listed as 08) [µM] | EC50 (SUDHL5 [5]; 3 h, Caspase-Glo 3/7, median) [µM] | IC50 (A2780; 72 h) [µM] | IC50 (MV-4-11; Homo sapiens, MV4-11, 72 h) [µM] | IC50 (SUDHL5 [3]; Homo sapiens, SU-DHL-5, 5 h) [M] | IC50 (SUDHL10 [4]; Homo sapiens, SU-DHL10, 5 h) [M] | IC50 (AMO-1; Homo sapiens, AMO1, 72 h) [µM] | IC50 (SUDHL5 [3]) [M] | IC50 (SUDHL10 [4]) [M] | IC50 (AMO-1; 72 h) | IC50 (MV-4-11; 72 h) |
| --- | --- | --- | --- | --- | --- | --- | --- | --- | --- | --- | --- | --- | --- | --- | --- | --- | --- | --- | --- |
| CCc1c2c(nn1C)COCCCCn1c(C(=O)O)c(CCCOc3ccc(F)c4ccccc34)c3ccc(F)c-2c31 (racemic) [Example 26, (rac)-12-ethyl-13-fluoro-1-(3-((4-fluoronaphthalen-1-yl)oxy)propyl)-11-methyl-4,5,6,7,9,11-hexahydropyrazolo[4′,3′:9,10][1]oxa[6]azacycloundecino[8,7,6-hi]indole-2-carboxylic acid] | 3.3 | 2.2e-06 | 0.0014 | 10.2 | 1.5 |  |  |  |  |  |  |  | 1.8e-06 | 3.7e-06 | 4.31 |  |  |  |  |
| CCc1c2c(nn1C)COCCCCn1c(C(=O)O)c(CCCOc3cccc4ccccc34)c3ccc(F)c-2c31 (single isomer, unassigned; enantiomer 2) [Example 8, 3-ethyl-4-fluoro-2-methyl-7-{3-[(naphthalen-1-yl)oxy]propyl}-2,10,11,12,13,15-hexahydro-pyrazolo[4′,3′:9,10][1,6]oxazacycloundecino[8,7,6-hi]indole-8-carboxylic acid-N-ethylethanamine salt (enantiomer 2)] |  |  | 0.026 |  |  | 21.3 | > 33 | 1.5e-05 | 20 | 30 |  |  |  |  |  | 2.7e-05 | > 3.3e-05 |  |  |
| Cc1c2c(nn1C)CNCCCCn1c(C(=O)O)c(CCCOc3cccc4ccccc34)c3ccc(F)c-2c31 (single isomer, unassigned; enantiomer 2) [Example 49, 4-fluoro-2,3-dimethyl-7-{3-[(naphthalen-1-yl)oxy]propyl}-10,11,12,13,14,15-hexahydro-2H-pyrazolo[3′,4′:8,9][1,6]diazacycloundecino[10,11,1-hi]indole-8-carboxylic acid (enantiomer 2)] |  |  | 0.04 |  |  |  | > 33 | 1e-05 |  | > 33 | 15.1 |  |  |  |  | > 2.7e-05 | > 3.3e-05 | > 33 µM | 18.9 µM and 23.3 µM |
| Cc1c2c(nn1C)C[N+](C)(C)CCCCn1c(C(=O)O)c(CCCOc3cccc4ccccc34)c3ccc(F)c-2c31 [Example 50, 8-carboxy-4-fluoro-2,3,14,14-tetramethyl-7-[3-(1-naphthyloxy)propyl]-10,11,12,13,14,15-hexa-hydro-2H-pyrazolo[3′,4′:8,9][1,6]diazacycloundecino[10,11,1-hi]indol-14-ium trifluroacetate] | > 33 | 6.1e-06 | 0.00084 | > 33 | 20 |  |  |  |  |  |  | 13.4 | 1.6e-05 | > 3.3e-05 |  |  |  |  |  |

The next lines start with results.

| EC50 (SUDHL10 [1]; [6]) [µM] | IC50 (SUDHL5 [2]; Homo sapiens, SU-DHL-5, 72 h) [M] | IC50 (MCL-1) [µM] | IC50 (A2780; Homo sapiens, A2780, 72 h) [µM] | EC50 (SUDHL5 [5]; [7]) [µM] | IC50 (MV-4-11; 72 h, listed as 08) [µM] | EC50 (SUDHL10 [1]; 3 h, Caspase-Glo 3/7, median) [µM] | IC50 (SUDHL5 [2]; 72 h) [M] | IC50 (A2780; 72 h, listed as 08) [µM] | EC50 (SUDHL5 [5]; 3 h, Caspase-Glo 3/7, median) [µM] | IC50 (A2780; 72 h) [µM] | IC50 (MV-4-11; Homo sapiens, MV4-11, 72 h) [µM] | Structure (SMILES) | IC50 (SUDHL5 [3]; Homo sapiens, SU-DHL-5, 5 h) [M] | IC50 (SUDHL10 [4]; Homo sapiens, SU-DHL10, 5 h) [M] | IC50 (AMO-1; Homo sapiens, AMO1, 72 h) [µM] | IC50 (SUDHL5 [3]) [M] | IC50 (SUDHL10 [4]) [M] | IC50 (AMO-1; 72 h) | IC50 (MV-4-11; 72 h) |
| --- | --- | --- | --- | --- | --- | --- | --- | --- | --- | --- | --- | --- | --- | --- | --- | --- | --- | --- | --- |
|  |  | 0.017 |  |  |  | 14 | 4e-06 |  | 5.4 | 19.8 |  | Cc1c2c(nn1C)COCCCCn1c(C(=O)O)c(CCCOc3cccc4cc(F)ccc34)c3ccc(F)c-2c31 (single isomer, unassigned; enantiomer 2) [Example 14, 4-fluoro-7-{3-[(6-fluoronaphthalen-1-yl)oxy]propyl}-2,3-dimethyl-2,10,11,12,13,15-hexahydro-pyrazolo[4′,3′:9,10][1,6]oxazacycloundecino[8,7,6-hi]indole-8-carboxylic acid-N-ethylethanamine salt (enantiomer 2)] |  |  |  | 6e-06 | 1.2e-05 | 7.54 µM and 11.6 µM |  |
|  |  | 0.04 |  |  |  | > 33 | 1.4e-05 |  | 21 | 29.6 |  | CCc1nn(C)c2c1-c1c(F)ccc3c(CCCOc4cccc5cc(F)ccc45)c(C(=O)O)n(c13)CCCCOC2 (single isomer, unassigned; enantiomer 2) [Example 40, 3-ethyl-4-fluoro-7-{3-[(6-fluoronaphthalen-1-yl)oxy]propyl}-1-methyl-1,10,11,12,13,15-hexahydropyrazolo[4′,3′:9,10][1,6]oxazacycloundecino[8,7,6-hi]indole-8-carboxylic acid-N-ethylethanamine salt (enantiomer 2)] |  |  |  | 2.3e-05 | > 2.5e-05 | > 33 µM | 14.3 µM and 11.6 µM |
